Experiments:
surinam grass = assay: Test B pre/postemergence surinam grass; type: in vivo, Brachiaria decumbens
Outline: (§1)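 Test chemicals in a non-phytotoxic solvent mixture with surfactant were sprayed preemergence onto planted seeds and postemergence onto plants 2 to 18 cm tall (1- to 4-leaf stage). After twelve to sixteen days in a greenhouse, injury was visually rated against untreated controls from 0 (no effect) to 10 (complete control).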

rape = assay: Test B pre/postemergence rape; type: in vivo, Brassica napus
Outline: as §1

morningglory = assay: Test B pre/postemergence morningglory; type: in vivo, Ipomoea hederacea
Outline: as §1

soybean = assay: Test B pre/postemergence soybean; type: in vivo, Glycine max
Outline: as §1

velvetleaf = assay: Test B pre/postemergence velvetleaf; type: in vivo, Abutilon theophrasti
Outline: as §1

crabgrass = assay: Test B pre/postemergence crabgrass; type: in vivo, Digitaria sanguinalis
Outline: as §1

cocklebur = assay: Test B pre/postemergence cocklebur; type: in vivo, Xanthium strumarium
Outline: as §1

pigweed = assay: Test B pre/postemergence pigweed; type: in vivo, Amaranthus retroflexus
Outline: as §1

wheat = assay: Test B pre/postemergence wheat; type: in vivo, Triticum aestivum
Outline: as §1

purple nutsedge = assay: Test B pre/postemergence purple nutsedge; type: in vivo, Cyperus rotundus
Outline: as §1

blackgrass = assay: Test B pre/postemergence blackgrass; type: in vivo, Alopecurus myosuroides
Outline: as §1

giant foxtail = assay: Test B pre/postemergence giant foxtail; type: in vivo, Setaria faberii
Outline: as §1

sugar beet = assay: Test B pre/postemergence sugar beet; type: in vivo, Beta vulgaris
Outline: as §1

corn = assay: Test B pre/postemergence corn; type: in vivo, Zea mays
Outline: as §1

bedstraw = assay: Test B pre/postemergence bedstraw; type: in vivo, Galium aparine
Outline: as §1

wild oat = assay: Test B pre/postemergence wild oat; type: in vivo, Avena fatua
Outline: as §1

[1] = Postemergence, Rate 125 g/ha, scale of 0 to 10 where 0 is no effect and 10 is complete control
[2] = Preemergence, Rate 62 g/ha, scale of 0 to 10 where 0 is no effect and 10 is complete control
[3] = Preemergence, Rate 125 g/ha, 0 is no effect, 10 is complete control
[4] = Preemergence, Rate 250 g/ha, scale 0 to 10, 0 is no effect, 10 is complete control
[5] = Preemergence, Rate 500 g/ha, scale 0 to 10 (0 no effect, 10 complete control)
[6] = Rate 62 g/ha, Postemergence, scale of 0 to 10 where 0 is no effect and 10 is complete control
[7] = Rate 250 g/ha, Postemergence, scale 0 to 10, 0 is no effect, 10 is complete control
[8] = Rate 500 g/ha, Postemergence, scale 0 to 10

CC(C)N(C(=O)n1oc(=O)n([C@@H](C)c2ccccc2)c1=O)c1ccccc1 [Compound 168]
B. signalgrass plant response rating (surinam grass; [1]): 0
B. signalgrass plant response rating (surinam grass; [2]): 0
B. signalgrass plant response rating (0 to 10 scale) (surinam grass; [3]): 2
B. signalgrass plant response rating (surinam grass; [4]): 2
B. signalgrass plant response rating (surinam grass; [5]): 5
B. signalgrass plant response rating (surinam grass; [6]): 0
Plant response rating, B. signalgrass (surinam grass; [7]): 0
B. signalgrass plant response rating (surinam grass; Rate 500 g/ha, Postemergence, scale 0 to 10, 0 no effect, 10 complete control): 0
Rape plant response rating (rape; [1]): 0
Rape plant response rating (rape; [2]): 0
Rape plant response rating (0 to 10 scale) (rape; [3]): 0
Rape plant response rating (rape; [4]): 0
Rape plant response rating (rape; [5]): 0
Rape plant response rating (rape; [6]): 0
Plant response rating, Rape (rape; [7]): 0
Rape plant response rating (rape; [8]): 0
Morningglory plant response rating (morningglory; [1]): 8
Morningglory plant response rating (morningglory; [2]): 0
Morningglory plant response rating (0 to 10 scale) (morningglory; [3]): 0
Morningglory plant response rating (morningglory; [4]): 0
Morningglory plant response rating (morningglory; [5]): 0
Morningglory plant response rating (morningglory; [6]): 7
Plant response rating, Morningglory (morningglory; [7]): 10
Morningglory plant response rating (morningglory; [8]): 10
Soybean plant response rating (soybean; [1]): 1
Soybean plant response rating (soybean; [2]): 0
Soybean plant response rating (0 to 10 scale) (soybean; [3]): 0
Soybean plant response rating (soybean; [4]): 0
Soybean plant response rating (soybean; [5]): 0
Soybean plant response rating (soybean; [6]): 1
Plant response rating, Soybean (soybean; [7]): 2
Soybean plant response rating (soybean; [8]): 2
Velvetleaf plant response rating (velvetleaf; [2]): 0
Velvetleaf plant response rating (0 to 10 scale) (velvetleaf; [3]): 0
Velvetleaf plant response rating (velvetleaf; [4]): 0
Velvetleaf plant response rating (velvetleaf; [5]): 6
Plant response rating, Velvetleaf (velvetleaf; [7]): 1
Velvetleaf plant response rating (velvetleaf; [8]): 1
Crabgrass plant response rating (crabgrass; [1]): 1
Crabgrass plant response rating (crabgrass; [2]): 0
Crabgrass plant response rating (0 to 10 scale) (crabgrass; [3]): 3
Crabgrass plant response rating (crabgrass; [4]): 7
Crabgrass plant response rating (crabgrass; [5]): 7
Crabgrass plant response rating (crabgrass; [6]): 0
Plant response rating, Crabgrass (crabgrass; [7]): 2
Crabgrass plant response rating (crabgrass; [8]): 9
Cocklebur plant response rating (cocklebur; [1]): 0
Cocklebur plant response rating (cocklebur; [2]): 0
Cocklebur plant response rating (0 to 10 scale) (cocklebur; [3]): 0
Cocklebur plant response rating (cocklebur; [4]): 0
Cocklebur plant response rating (cocklebur; [5]): 0
Cocklebur plant response rating (cocklebur; [6]): 0
Plant response rating, Cocklebur (cocklebur; [7]): 2
Cocklebur plant response rating (cocklebur; [8]): 2
Redroot pigweed plant response rating (pigweed; [1]): 0
Redroot pigweed plant response rating (pigweed; [2]): 0
Redroot pigweed plant response rating (0 to 10 scale) (pigweed; [3]): 0
Redroot pigweed plant response rating (pigweed; [4]): 0
Redroot pigweed plant response rating (pigweed; [5]): 0
Redroot pigweed plant response rating (pigweed; [6]): 0
Plant response rating, Redroot pigweed (pigweed; [7]): 0
Redroot pigweed plant response rating (pigweed; [8]): 0
Wheat plant response rating (wheat; [2]): 0
Wheat plant response rating (0 to 10 scale) (wheat; [3]): 0
Wheat plant response rating (wheat; [4]): 0
Wheat plant response rating (wheat; [5]): 0
Plant response rating, Wheat (wheat; [7]): 0
Wheat plant response rating (wheat; [8]): 0
Nutsedge plant response rating (purple nutsedge; [1]): 0
Nutsedge plant response rating (purple nutsedge; [2]): 0
Nutsedge plant response rating (0 to 10 scale) (purple nutsedge; [3]): 0
Nutsedge plant response rating (purple nutsedge; [4]): 0
Nutsedge plant response rating (purple nutsedge; [5]): 0
Nutsedge plant response rating (purple nutsedge; [6]): 0
Plant response rating, Nutsedge (purple nutsedge; [7]): 0
Nutsedge plant response rating (purple nutsedge; [8]): 0
Blackgrass plant response rating (blackgrass; [1]): 0
Blackgrass plant response rating (blackgrass; [2]): 0
Blackgrass plant response rating (0 to 10 scale) (blackgrass; [3]): 1
Blackgrass plant response rating (blackgrass; [4]): 2
Blackgrass plant response rating (blackgrass; [5]): 2
Blackgrass plant response rating (blackgrass; [6]): 0
Plant response rating, Blackgrass (blackgrass; [7]): 2
Blackgrass plant response rating (blackgrass; [8]): 7
Giant foxtail plant response rating (giant foxtail; [1]): 0
Giant foxtail plant response rating (giant foxtail; [2]): 6
Giant foxtail plant response rating (0 to 10 scale) (giant foxtail; [3]): 8
Giant foxtail plant response rating (giant foxtail; [4]): 10
Giant foxtail plant response rating (giant foxtail; [5]): 10
Giant foxtail plant response rating (giant foxtail; [6]): 0
Plant response rating, Giant foxtail (giant foxtail; [7]): 1
Giant foxtail plant response rating (giant foxtail; [8]): 3
Sugarbeets plant response rating (sugar beet; [1]): 0
Sugarbeets plant response rating (sugar beet; [2]): 0
Sugarbeets plant response rating (0 to 10 scale) (sugar beet; [3]): 0
Sugarbeets plant response rating (sugar beet; [4]): 4
Sugarbeets plant response rating (sugar beet; [5]): 7
Sugarbeets plant response rating (sugar beet; [6]): 0
Plant response rating, Sugarbeets (sugar beet; [7]): 0
Sugarbeets plant response rating (sugar beet; [8]): 0
Corn plant response rating (corn; [1]): 0
Corn plant response rating (corn; [2]): 0
Corn plant response rating (0 to 10 scale) (corn; [3]): 0
Corn plant response rating (corn; [4]): 0
Corn plant response rating (corn; [5]): 0
Corn plant response rating (corn; [6]): 0
Plant response rating, Corn (corn; [7]): 0
Corn plant response rating (corn; [8]): 0
Bedstraw plant response rating (bedstraw; [1]): 3
Bedstraw plant response rating (bedstraw; [2]): 0
Bedstraw plant response rating (0 to 10 scale) (bedstraw; [3]): 0
Bedstraw plant response rating (bedstraw; [4]): 0
Bedstraw plant response rating (bedstraw; [5]): 0
Bedstraw plant response rating (bedstraw; [6]): 3
Plant response rating, Bedstraw (bedstraw; [7]): 8
Wild oats plant response rating (wild oat; [2]): 0
Wild oats plant response rating (0 to 10 scale) (wild oat; [3]): 0
Wild oats plant response rating (wild oat; [4]): 1
Wild oats plant response rating (wild oat; [5]): 3
Plant response rating, Wild oats (wild oat; [7]): 0
Wild oats plant response rating (wild oat; [8]): 0
